In patent US20040029138A1, “Global electronic medicine response profile testing network” (priority 2003, published 2004):
Structures can show the parent of a compound that is named as a salt.

Tests used:
[1] = tested on: patients with Irritable Bowel Syndrome (IBS); settings: double blind, placebo controlled studies; cited from earlier work
subjects with IBS = assay: Double blind, placebo controlled clinical trials of alosetron for IBS, response stratified by 5HTT genotype; type: in vivo, human; settings: for Relief of IBS symptoms (subjects achieving relief): 12 weeks treatment
Experimental: Genetic samples were obtained from 219 female human subjects enrolled in clinical trials of alosetron for the treatment of IBS. Using PCR technology as is known in the art, an insertion/deletion genetic marker was assayed in the 5-hydroxytryptamine-transporter gene (5HTT gene). The alleles were labeled as “del” (deletion) or “ins” (insertion) resulting in three possible genotypes (del/del; del/ins or ins/ins). The subjects' response to alosetron in the clinical trial setting was reviewed and correlated with genotype. In the double blind, placebo controlled clinical trials; subjects received 12 weeks of treatment with either alosetron or a placebo. A favorable response to alosetron was when a subject reported relief of IBS symptoms during six weeks of the twelve-week trial. The incidence of various other effects, including constipation, was also recorded. The response of subjects to treatment with alosetron in the clinical trial was stratified according to genotype.

## Cc1[nH]cnc1CN1CCc2c(c3ccccc3n2C)C1=O [alosetron, Alosetron hydrochloride]
[1]
  Effect on pain and bowel function in IBS patients: reduce pain and improve bowel function
Subjects with IBS; del/del 5HTT genotype subjects (21/31), relief during six weeks of the twelve-week trial
  Relief of IBS symptoms (subjects achieving relief): 68%
Subjects with IBS; del/del subjects (n=31), 4 subjects
  Constipation reported (incidence): 13%
Subjects with IBS; del/ins 5HTT genotype subjects (21/33)
  Relief of IBS symptoms (subjects achieving relief): 64%
Subjects with IBS; del/ins subjects (n=33), 10 subjects
  Constipation reported (incidence): 30%
Subjects with IBS; in each of the three 5HTT genotypes
  Effectiveness versus placebo in producing relief of IBS symptoms: more effective than placebo
Subjects with IBS; ins/ins 5HTT genotype subjects (22/38)
  Relief of IBS symptoms (subjects achieving relief): 58%
Subjects with IBS; ins/ins subjects (n=38), 8 subjects
  Constipation reported (incidence): 21%
Subjects with IBS; total group of subjects receiving alosetron (n=102)
  Constipation reported (incidence): 21%
